ChEMBL document CHEMBL3046652, “Photodimerization of heteroaryl chalcones: comparative antimicrobial activities of chalcones and their photoproducts” (2012)
≈ marks a conversion by molar mass, not a printed value.

Experiments:
Assay type in all cases: functional
[1] = system: Serratia marcescens; assay: Antimicrobial activity against Serratia marcescens by disk diffusion method
[2] = system: Priestia megaterium; assay: Antimicrobial activity against Bacillus megaterium by disk diffusion method
[3] = system: Proteus vulgaris; assay: Antimicrobial activity against Proteus vulgaris by disk diffusion method
[4] = system: Klebsiella pneumoniae; assay: Antimicrobial activity against Klebsiella pneumoniae by disk diffusion method
[5] = system: Serratia marcescens; assay: Antimicrobial activity against Serratia marcescens at 20 ug/disk by disk diffusion method; conditions: read-out: DIZ
[6] = system: Aspergillus oryzae; assay: Antimicrobial activity against Aspergillus oryzae at 10 ug/disk by disk diffusion method; conditions: read-out: DIZ
[7] = system: Citrobacter freundii; assay: Antimicrobial activity against Citrobacter freundii at 20 ug/disk by disk diffusion method; conditions: read-out: DIZ
[8] = system: Micrococcus luteus; assay: Antimicrobial activity against Micrococcus luteus by disk diffusion method
[9] = system: Fusarium verticillioides; assay: Antimicrobial activity against Fusarium verticillioides at 10 ug/disk by disk diffusion method; conditions: read-out: DIZ
[10] = system: Salmonella typhi; assay: Antimicrobial activity against Salmonella enterica subsp. enterica serovar Typhi by disk diffusion method
[11] = system: Escherichia coli; assay: Antimicrobial activity against Escherichia coli by disk diffusion method
[12] = system: Candida albicans; assay: Antimicrobial activity against Candida albicans at 40 ug/disk by disk diffusion method; conditions: read-out: DIZ
[13] = system: Proteus vulgaris; assay: Antimicrobial activity against Proteus vulgaris at 20 ug/disk by disk diffusion method; conditions: read-out: DIZ
[14] = system: Priestia megaterium; assay: Antimicrobial activity against Bacillus megaterium at 10 ug/disk by disk diffusion method; conditions: read-out: DIZ
[15] = system: Escherichia coli; assay: Antimicrobial activity against Escherichia coli at 10 ug/disk by disk diffusion method; conditions: read-out: DIZ
[16] = system: Pseudomonas aeruginosa; assay: Antimicrobial activity against Pseudomonas aeruginosa by disk diffusion method
[17] = system: Pseudomonas aeruginosa; assay: Antimicrobial activity against Pseudomonas aeruginosa at 10 ug/disk by disk diffusion method; conditions: read-out: DIZ
[18] = system: Citrobacter freundii; assay: Antimicrobial activity against Citrobacter freundii by disk diffusion method
[19] = system: Micrococcus luteus; assay: Antimicrobial activity against Micrococcus luteus at 10 ug/disc by disk diffusion method; conditions: read-out: DIZ
[20] = system: Klebsiella pneumoniae; assay: Antimicrobial activity against Klebsiella pneumoniae at 10 to 60 ug/disk by disk diffusion method
[21] = system: Aspergillus niger; assay: Antimicrobial activity against Aspergillus niger at 20 ug/disk by disk diffusion method; conditions: read-out: DIZ
[22] = system: Salmonella typhi; assay: Antimicrobial activity against Salmonella enterica subsp. enterica serovar Typhi at 10 ug/disk by disk diffusion method; conditions: read-out: DIZ
[23] = system: Aspergillus oryzae; assay: Antimicrobial activity against Aspergillus oryzae at 30 ug/disk by disk diffusion method; conditions: read-out: DIZ
[24] = system: Candida albicans; assay: Antimicrobial activity against Candida albicans at 10 ug/disk by disk diffusion method; conditions: read-out: DIZ
[25] = system: Serratia marcescens; assay: Antimicrobial activity against Serratia marcescens at 10 ug/disk by disk diffusion method; conditions: read-out: DIZ
[26] = system: Klebsiella pneumoniae; assay: Antimicrobial activity against Klebsiella pneumoniae at 20 ug/disk by disk diffusion method; conditions: read-out: DIZ
[27] = system: Escherichia coli; assay: Antimicrobial activity against Escherichia coli at 30 ug/disk by disk diffusion method; conditions: read-out: DIZ
[28] = system: Pseudomonas aeruginosa; assay: Antimicrobial activity against Pseudomonas aeruginosa at 40 ug/disk by disk diffusion method; conditions: read-out: DIZ
[29] = system: Proteus vulgaris; assay: Antimicrobial activity against Proteus vulgaris at 10 ug/disk by disk diffusion method; conditions: read-out: DIZ
[30] = system: Fusarium verticillioides; assay: Antimicrobial activity against Fusarium verticillioides at 30 ug/disk by disk diffusion method; conditions: read-out: DIZ
[31] = system: Salmonella typhi; assay: Antimicrobial activity against Salmonella enterica subsp. enterica serovar Typhi at 50 ug/disk by disk diffusion method; conditions: read-out: DIZ
[32] = system: Candida albicans; assay: Antimicrobial activity against Candida albicans at 10 to 60 ug/disk by disk diffusion method
[33] = system: Citrobacter freundii; assay: Antimicrobial activity against Citrobacter freundii at 10 to 60 ug/disk by disk diffusion method
[34] = system: Pseudomonas aeruginosa; assay: Antimicrobial activity against Pseudomonas aeruginosa at 10 to 60 ug/disk by disk diffusion method
[35] = system: Aspergillus oryzae; assay: Antimicrobial activity against Aspergillus oryzae at 10 to 60 ug/disk by disk diffusion method
[36] = system: Serratia marcescens; assay: Antimicrobial activity against Serratia marcescens at 10 to 60 ug/disk by disk diffusion method
[37] = system: Fusarium verticillioides; assay: Antimicrobial activity against Fusarium verticillioides at 10 to 60 ug/disk by disk diffusion method
[38] = system: Escherichia coli; assay: Antimicrobial activity against Escherichia coli at 10 to 60 ug/disk by disk diffusion method
[39] = system: Priestia megaterium; assay: Antimicrobial activity against Bacillus megaterium at 10 to 60 ug/disk by disk diffusion method
[40] = system: Salmonella typhi; assay: Antimicrobial activity against Salmonella enterica subsp. enterica serovar Typhi at 10 to 60 ug/disk by disk diffusion method
[41] = system: Aspergillus niger; assay: Antimicrobial activity against Aspergillus niger at 10 to 60 ug/disk by disk diffusion method
[42] = system: Proteus vulgaris; assay: Antimicrobial activity against Proteus vulgaris at 10 to 60 ug/disk by disk diffusion method
[43] = system: Micrococcus luteus; assay: Antimicrobial activity against Micrococcus luteus at 10 to 60 ug/disc by disk diffusion method
[44] = system: Klebsiella pneumoniae; assay: Antimicrobial activity against Klebsiella pneumoniae at 10 ug/disk by disk diffusion method; conditions: read-out: DIZ
[45] = system: Aspergillus niger; assay: Antimicrobial activity against Aspergillus niger at 10 ug/disk by disk diffusion method; conditions: read-out: DIZ
[46] = system: Fusarium verticillioides; assay: Antimicrobial activity against Fusarium verticillioides at 20 ug/disk by disk diffusion method; conditions: read-out: DIZ
[47] = system: Citrobacter freundii; assay: Antimicrobial activity against Citrobacter freundii at 10 ug/disk by disk diffusion method; conditions: read-out: DIZ

With `O=C(/C=C/c1ccccc1)c1cccs1` the MIC [1] was 10 µg/mL (≈ 46.7 µM), the MIC [2] was 10 µg/mL (≈ 46.7 µM) and the MIC [3] was 10 µg/mL (≈ 46.7 µM). The MIC [4] was 10 µg/mL (≈ 46.7 µM), the zone of inhibition at 20 µg/disc [5] was 9 mm and the zone of inhibition at 10 µg/disc [6] was 9 mm. The zone of inhibition at 20 µg/disc [7] was 7 mm, the MIC [8] was 10 µg/mL (≈ 46.7 µM) and the zone of inhibition at 10 µg/disc [9] was 9 mm. The MIC [10] was 10 µg/mL (≈ 46.7 µM), the MIC [11] was 10 µg/mL (≈ 46.7 µM) and the zone of inhibition at 40 µg/disc [12] was 9 mm. The zone of inhibition at 20 µg/disc [13] was 11 mm, the zone of inhibition at 10 µg/disc [14] was 10 mm and the zone of inhibition at 10 µg/disc [15] was 5 mm. For the same compound, the MIC [16] was 10 µg/mL (≈ 46.7 µM), the zone of inhibition at 10 µg/disc [17] was 5 mm and the MIC [18] was 10 µg/mL (≈ 46.7 µM). The zone of inhibition at 10 µg/disc [19] was 9 mm, the “diameter of the inhibition zone (DIZ)” value [20] was 10 mm and the zone of inhibition at 20 µg/disc [21] was 7 mm. The zone of inhibition at 10 µg/disc [22] was 12 mm.

In the case of `O=C(/C=C/c1ccccc1)c1ccc[nH]1`, the zone of inhibition at 30 µg/disc [23] is reported as 9 mm, the zone of inhibition at 10 µg/disc [24] is reported as 7 mm and the MIC [1] is reported as 10 µg/mL (≈ 50.7 µM). For the same compound, the MIC [2] was 10 µg/mL (≈ 50.7 µM), the zone of inhibition at 10 µg/disc [25] was 9 mm and the zone of inhibition at 20 µg/disc [26] was 8 mm. It also gave an MIC [3] of 10 µg/mL (≈ 50.7 µM), an MIC [4] of 10 µg/mL (≈ 50.7 µM) and a zone of inhibition at 30 µg/disc [27] of 7 mm. The zone of inhibition at 20 µg/disc [7] was 6 mm, the MIC [8] was 10 µg/mL (≈ 50.7 µM) and the MIC [10] was 10 µg/mL (≈ 50.7 µM). The zone of inhibition at 40 µg/disc [28] was 7 mm, the MIC [11] was 10 µg/mL (≈ 50.7 µM) and the zone of inhibition at 10 µg/disc [29] was 5 mm. It also gave a zone of inhibition at 10 µg/disc [14] of 13 mm, an MIC [16] of 10 µg/mL (≈ 50.7 µM) and an MIC [18] of 10 µg/mL (≈ 50.7 µM). The zone of inhibition at 30 µg/disc [30] was 8 mm, the zone of inhibition at 10 µg/disc [19] was 7 mm and the zone of inhibition at 50 µg/disc [31] was 7 mm. The zone of inhibition at 20 µg/disc [21] was 11 mm.

With `O=C(c1ccc[nH]1)C1C(C(=O)c2ccc[nH]2)C(c2ccccc2)C1c1ccccc1` (stereo not given) the “diameter of the inhibition zone (DIZ)” value [32] was 5 mm, the “diameter of the inhibition zone (DIZ)” value [33] was 5 mm and the “diameter of the inhibition zone (DIZ)” value [34] was 6 mm. The “diameter of the inhibition zone (DIZ)” value [35] was 5 mm, the “diameter of the inhibition zone (DIZ)” value [36] was 5 mm and the “diameter of the inhibition zone (DIZ)” value [37] was 5 mm. For the same compound, the “diameter of the inhibition zone (DIZ)” value [38] was 5 mm, the “diameter of the inhibition zone (DIZ)” value [39] was 5 mm and the “diameter of the inhibition zone (DIZ)” value [40] was 5 mm. For the same compound, the “diameter of the inhibition zone (DIZ)” value [41] was 5 mm, the “diameter of the inhibition zone (DIZ)” value [42] was 5 mm and the “diameter of the inhibition zone (DIZ)” value [20] was 5 mm. For the same compound, the “diameter of the inhibition zone (DIZ)” value [43] was 5 mm.

For `O=C(/C=C/c1ccco1)c1ccccc1`, the zone of inhibition at 30 µg/disc [23] was 8 mm, the zone of inhibition at 10 µg/disc [24] was 9 mm and the MIC [1] was 10 µg/mL (≈ 50.4 µM). The MIC [2] was 20 µg/mL (≈ 101 µM), the zone of inhibition at 10 µg/disc [25] was 7 mm and the MIC [3] was 20 µg/mL (≈ 101 µM). It also gave a zone of inhibition at 10 µg/disc [44] of 6 mm, an MIC [4] of 10 µg/mL (≈ 50.4 µM) and a zone of inhibition at 10 µg/disc [45] of 8 mm. It also gave an MIC [8] of 10 µg/mL (≈ 50.4 µM), an MIC [10] of 10 µg/mL (≈ 50.4 µM) and an MIC [11] of 10 µg/mL (≈ 50.4 µM). For the same compound, the zone of inhibition at 10 µg/disc [29] was 9 mm, the zone of inhibition at 10 µg/disc [14] was 9 mm and the zone of inhibition at 10 µg/disc [15] was 5 mm. It also gave an MIC [16] of 10 µg/mL (≈ 50.4 µM), a zone of inhibition at 10 µg/disc [17] of 5 mm and an MIC [18] of 10 µg/mL (≈ 50.4 µM). It also gave a zone of inhibition at 20 µg/disc [46] of 7 mm, a zone of inhibition at 10 µg/disc [19] of 9 mm and a zone of inhibition at 10 µg/disc [47] of 7 mm. For the same compound, the zone of inhibition at 10 µg/disc [22] was 5 mm.

With `O=C(c1cccs1)C1C(C(=O)c2cccs2)C(c2ccccc2)C1c1ccccc1` (stereo not given) the “diameter of the inhibition zone (DIZ)” value [32] was 5 mm, the “diameter of the inhibition zone (DIZ)” value [33] was 5 mm and the “diameter of the inhibition zone (DIZ)” value [34] was 5 mm. The “diameter of the inhibition zone (DIZ)” value [35] was 5 mm, the “diameter of the inhibition zone (DIZ)” value [36] was 5 mm and the “diameter of the inhibition zone (DIZ)” value [37] was 5 mm. For the same compound, the “diameter of the inhibition zone (DIZ)” value [38] was 5 mm, the “diameter of the inhibition zone (DIZ)” value [39] was 9 mm and the “diameter of the inhibition zone (DIZ)” value [40] was 6 mm. The “diameter of the inhibition zone (DIZ)” value [41] was 5 mm, the “diameter of the inhibition zone (DIZ)” value [42] was 5 mm and the “diameter of the inhibition zone (DIZ)” value [20] was 5 mm. For the same compound, the “diameter of the inhibition zone (DIZ)” value [43] was 7 mm.

For `O=C(c1ccco1)C1C(C(=O)c2ccco2)C(c2ccccc2)C1c1ccccc1` (stereo not given), the “diameter of the inhibition zone (DIZ)” value [32] was 5 mm, the “diameter of the inhibition zone (DIZ)” value [33] was 5 mm and the “diameter of the inhibition zone (DIZ)” value [34] was 5 mm. The “diameter of the inhibition zone (DIZ)” value [35] was 5 mm, the “diameter of the inhibition zone (DIZ)” value [36] was 5 mm and the “diameter of the inhibition zone (DIZ)” value [37] was 6 mm. For the same compound, the “diameter of the inhibition zone (DIZ)” value [38] was 5 mm, the “diameter of the inhibition zone (DIZ)” value [39] was 5 mm and the “diameter of the inhibition zone (DIZ)” value [40] was 5 mm. For the same compound, the “diameter of the inhibition zone (DIZ)” value [41] was 5 mm, the “diameter of the inhibition zone (DIZ)” value [42] was 7 mm and the “diameter of the inhibition zone (DIZ)” value [20] was 5 mm. The “diameter of the inhibition zone (DIZ)” value [43] was 7 mm.
